Source: patent US20250064807A1, “Promoting Hair Growth and Treatment of Hair Loss or Excessive Hair Shedding” (Samson Clinical Pty Ltd, priority 2017, published 2025)
Where “and” joins values, the source holds several entries; their conditions need not be identical. Equal entries are not always repeated. Entries after “also recorded” stand apart in the source; their conditions may differ. Where two headings read alike, the source gives them in different places.

Tests used:
[1] = cited from earlier work
men and women with AGA = assay: Hair regrowth by macrophotography hair counts and global photography (Example 7); type: in vivo, human
Procedure: Hair counts were performed on dermatoscopic images taken at baseline and after 6 weeks. […] Steady state serum levels were measured after 8 weeks of daily dosing.

[2] = cited from earlier work; for mean serum concentration after topical application: scalp, twice daily; for peak serum concentration: one hour post-dose
women = assay: Hair count after 12 weeks of daily sublingual minoxidil troche (Example 6); type: in vivo, human; conditions: individual patients 1-3, listed as sublingual minoxidil
[3] = test system: patients with FPHL or MPHL; assay: Randomized double-blind study of 0.45 mg sublingual minoxidil, week 8 interim hair assessments (Example 8); type: in vivo, human
Procedure: Participants receive study medication for 24 weeks followed by a follow-up visit 4 weeks later.
The aim is to enroll 40 participants.
Number of participants completed Week 8: 12 (2 females, 10 males). […] This timepoint represents a third of the planned treatment period for the study (24 weeks). Data from these 12 participants have been analysed at the 8 week mark. Analysis was performed blind as the study is still ongoing.
The minimum criteria for hair loss severity in female participants is a Grade 2 and maximum is Grade 5. ISA at Screening was Sinclair Scale 2 and 3 for each female participant. […] As the study is ongoing and medication blind still stands, the final outcome of change in hair density (at Week 24) cannot be concluded in this report. The minimum criteria for enrolment for male participants is Grade III-Vertex and maximum is VI.
Standardized global photography are taken at Study Weeks 0 (prior to dispensing of medication) and 8. Subsequent Week 16, 24 and 28 visits will also include global photography. A vertex and frontal scalp photograph is taken from a fixed height with a dedicated SLR camera. Current collated global photographs for all 12 patients were assessed by a blinded assessor. Comparison photographs between Baseline and Week 8 was provided to the designated blinded assessor.
Initial assessment of Dermatology Life Quality Index (DLQI) for males and Women's AGA Quality of Life Questionnaire (WAA-QOL): Responses by female participants was generally more negative corresponding to a higher score at both Baseline and Week 8 visits. The impact on Quality of Life was more pronounced in comparison to the male participants. […] A full score of 38 represented dissatisfaction with current hair growth. The mean score was 25 (SD: 2.19) at Week 0 and 24.7 (SD: 4.08) at Week 8. The median score from all 10 male participants was 24.5 and 25 respectively. Both female patients reported an average of Grade 3 with the Sinclair Scale (FIG. 1 above) at Baseline visit and subsequent Week 8 visit. This was consistent with the Investigator's grade of their hair loss severity.

[4] = for minoxidil in serum samples at steady state: 0.45 mg sublingually daily for a minimum of 6 weeks
Procedure: (§1) Hair counts were performed on dermatoscopic images taken at baseline and after 6 weeks. […] Steady state serum levels were measured after 8 weeks of daily dosing. 13 patients had hair counts performed.

[5] = test system: women aged 20-68 with Sinclair stages 2-5 FPHL; assay: Head to head study topical 5% minoxidil once daily vs oral minoxidil 1 mg daily, 24 weeks (data on file); type: in vivo, human; conditions: for additional hairs on scalp from increase in hair density: scalp area 630 cm^2; for mean increase in terminal hair count: 24 weeks
[6] = for blood pressure after first dose / at time of peak concentration: single sublingual dose 0.45 mg; for adverse events / side effects: sublingual minoxidil 0.45 mg, b166: 30 patients, 2 to 12 months
Procedure: as §1

[7] = Assessment of sublingual minoxidil on patient blood pressure (Example 5); conditions: 2.5 mg sublingual troche, 5 individuals, monitored 6 hours post administration
[8] = Minoxidil serum levels after a single sublingual dose (Example 7); conditions: for minoxidil in the serum after 2 hours: single sublingual dose 0.45 mg
[9] = Stability and beyond use of minoxidil and compounded dosage forms; type: physicochemical; conditions: 110° C. for 30 minutes
men with MPHL = conditions: cited from earlier work
[10] = 0.45 mg sublingually daily, minimum 6 weeks, 13 patients
[11] = 0.45 mg sublingually once daily
[12] = 0.25 mg sublingual troche daily, 12 weeks
[13] = 0.25 mg sublingual troche daily
[14] = Baseline vs Week 8, blinded assessor, blind not broken
[15] = 30 patients, sublingual minoxidil for between 2 and 12 months

Question: For `Nc1cc(N2CCCCC2)nc(N)[n+]1[O-]` [minoxidil, 2,4-Diamino-6-piperidinopyrimidine 3-oxide], which “effect on blood pressure in hypertensive patients” value ([1]; oral, 5 to 100 mg daily) is on record?
Answer: profound reduction in blood pressure

Question: What about the “effect on blood pressure of normotensive individuals” value ([1]; oral, 5 to 100 mg daily) of the same molecule?
Answer: minimal effect

Question: What about the “effect on blood pressure or pulse rate” value ([1]; topical) of the same molecule?
Answer: minimal effect

Question: What about the “serum concentration threshold for any hemodynamic response” value ([1]; twelve hour steady state intravenous infusions (Ferry et al., 1996)) of the same molecule?
Answer: 20 ng/mL

Question: And the “change in hair counts on frontal and vertex areas, all patients” value (men and women with AGA; 0.45 mg sublingually daily, 6 weeks, 13 patients)?
Answer: increased terminal hairs; also recorded: increase in hair counts

Question: And the “hair density, clinic assessment” value (men and women with AGA; 0.45 mg sublingually daily, minimum 6 weeks, 2 patients)?
Answer: moderate increase (+2)

Question: What about the “mean increase in frontal scalp terminal hairs” value (men and women with AGA; [10]) of the same molecule?
Answer: 69.13 hairs/cm^2

Question: And the “mean increase in vertex scalp terminal hairs” value (men and women with AGA; [10])?
Answer: 97.38 hairs/cm^2

Question: What about the “range of increase in frontal scalp terminal hairs” value (men and women with AGA; [10]) of the same molecule?
Answer: 4-133 hairs/cm^2

Question: And the “range of increase in vertex scalp terminal hairs” value (men and women with AGA; [10])?
Answer: 31-253 hairs/cm^2

Question: And the “hair regrowth compared with topical or oral minoxidil” value (men and women with AGA; [11])?
Answer: greater and detected earlier

Question: What about the “increase from baseline in hair count on the vertex scalp” value (men and women with AGA; [11]) of the same molecule?
Answer: 52.5%

Question: What about the “increase from baseline in hair count over the frontal scalp” value (men and women with AGA; [11]) of the same molecule?
Answer: 36.5%

Question: What about the “hair regrowth compared with topical or oral minoxidil” value (men and women with AGA; 0.45 mg sublingually once daily, listed as sublingual minoxidil) of the same molecule?
Answer: grows more hair

Question: And the “midline hair density, blinded assessment of global photography” value (men and women with AGA; 0.45 mg sublingually, 8 weeks, 5 of the patients)?
Answer: slight increase

Question: What about the “scalp global photographs at 6 weeks” value (men and women with AGA; 0.45 mg sublingually, all patients) of the same molecule?
Answer: either mild or moderate improvement

Question: And the “mean serum concentration after topical application” value ([2]; 2% minoxidil (20 mg/ml))?
Answer: 0.7 ng/mL

Question: And the “mean serum concentration after topical application” value ([2]; 5% minoxidil (50 mg/ml))?
Answer: 1.8 ng/mL

Question: What about the “absorption through the gastrointestinal tract” value ([2]; in vivo, po) of the same molecule?
Answer: > 90%

Question: And the peak serum concentration ([2]; oral dose 2.5 mg)?
Answer: 18.5 ng/mL

Question: And the peak serum concentration ([2]; oral dose 5 mg)?
Answer: 41 ng/mL

Question: What about the “highest serum level recorded” value ([2]; topical application) of the same molecule?
Answer: 18.2 ng/mL

Question: What about the “terminal hair count at 12 weeks (figure legend)” value (women; [12]) of the same molecule?
Answer: 123 and 186 and 71

Question: What about the “vellus hair count at 12 weeks” value (women; [12]) of the same molecule?
Answer: 6 and 13

Question: What about the “total hair count at 12 weeks” value (women; 0.25 mg sublingual troche daily, 12 weeks, scalp section) of the same molecule?
Answer: 129 and 199 and 84

Question: And the “increase in total hair count from baseline to 12 weeks” value (women; [13])?
Answer: 21 hairs and 32 hairs and 23 hairs

Question: And the “percent increase in total hair count from baseline to 12 weeks” value (women; [13])?
Answer: 19.4% and 19.2% and 37.7%

Question: What about the “Hair Count at week 12” value (women; Table 1, terminal hairs, 0.25 mg sublingual troche daily) of the same molecule?
Answer: 71 and 123 and 186

Question: And the Percentage increase (women; Table 1, week 12 vs baseline terminal hair count)?
Answer: 42% and 23% and 23.2%

Question: And the “Investigator scalp assessment, Sinclair Scale, change at Week 8” value ([3]; 0.45 mg sublingual once daily, individual female participants, blind not broken, listed as sublingual minoxidil)?
Answer: slight increase from grade 3 to 2; also recorded: no change

Question: And the “Men's Hair Growth Questionnaire median score at Week 8” value ([3]; 10 male participants)?
Answer: 25

Question: What about the “Men's Hair Growth Questionnaire scores, Week 0 vs Week 8” value ([3]; 10 male participants) of the same molecule?
Answer: No significant difference

Question: And the “Men's Hair Growth Questionnaire mean score at Week 8” value ([3]; 10 male participants, full score 38 = dissatisfaction)?
Answer: 24.7 (SD: 4.08)

Question: What about the “participants (of 12) whose assessment suggests a slight to moderate increase in hair density” value [3, 14] of the same molecule?
Answer: Eight

Question: What about the “participants (of 12) whose global photography suggests a decrease in hair density” value [3, 14] of the same molecule?
Answer: 2 participants

Question: What about the “patient reported Sinclair Scale grade at Week 8 (average)” value ([3]; both female patients, same at Baseline) of the same molecule?
Answer: 3 Grade

Question: And the “minoxidil in serum samples at steady state” value [4]?
Answer: No minoxidil was detected

Question: And the “minoxidil in serum samples at steady state” value ([4]; listed as sublingual minoxidil)?
Answer: not detected

Question: And the “accumulation with continuous dosing” value ([4]; continuous sublingual dosing)?
Answer: does not accumulate

Question: And the “additional hairs on scalp from increase in hair density” value ([5]; 7 hair/cm^2 increase (topical group))?
Answer: 4600 hairs

Question: And the “additional hairs on scalp from increase in hair density” value ([5]; 27 hair/cm^2 increase (oral group))?
Answer: 17,000 hairs

Question: What about the “mean increase in terminal hair count” value ([5]; oral minoxidil 1 mg daily) of the same molecule?
Answer: 27 /cm^2

Question: What about the “mean increase in terminal hair count” value ([5]; topical 5% minoxidil once daily) of the same molecule?
Answer: 7 /cm^2

Question: What about the “adverse events at Week 8 visit” value (0.45 mg sublingual once daily, 12 participants, blind not broken) of the same molecule?
Answer: No significant adverse events

Question: And the “blood pressure readings, day of randomization vs Week 8” value (12 participants)?
Answer: not significant

Question: What about the “respiratory rate and tympanic temperature” value (12 participants) of the same molecule?
Answer: within normal range

Question: What about the safety blood profile (Week 8, 12 participants) of the same molecule?
Answer: within the normal range

Question: What about the biochemical abnormality [6, 15] of the same molecule?
Answer: No biochemical abnormality was detected

Question: What about the “hypertrichosis, tachycardia, fluid retention or postural hypotension” value [6, 15] of the same molecule?
Answer: No patient developed hypertrichosis, tachycardia, fluid retention or postural hypotension

Question: And the mean blood pressure [6, 15]?
Answer: no reduction

Question: And the “blood pressure after first dose / at time of peak concentration” value [6]?
Answer: unaffected

Question: What about the “blood pressure after first dose / at time of peak concentration” value ([6]; listed as sublingual minoxidil) of the same molecule?
Answer: no change

Question: What about the “adverse events / side effects” value [6] of the same molecule?
Answer: No adverse events were noted

Question: What about the “adverse events / side effects” value ([6]; listed as sublingual minoxidil) of the same molecule?
Answer: No side effects were reported

Question: What about the “adverse symptoms, postural hypotension or change in blood pressure” value [7] of the same molecule?
Answer: No adverse symptoms, postural hypotension or change in blood pressure was noted

Question: What about the “minoxidil in the serum after 2 hours” value [8] of the same molecule?
Answer: no detectable minoxidil; also recorded: undetectable

Question: What about the “minoxidil in the serum after 2 hours” value ([8]; listed as sublingual minoxidil) of the same molecule?
Answer: no detectable minoxidil

Question: And the “circulating minoxidil after 1 hour” value ([8]; sublingual dosing)?
Answer: undetectable

Question: What about the thermal stability [9] of the same molecule?
Answer: stable

Question: And the “men with MPHL with arrest of hair loss or mild to moderate hair regrowth” value (men with MPHL; applied topically)?
Answer: approximately 60%

Question: What about the “average increase in hair count” value (men with MPHL; topical, 5% concentration, 12 months) of the same molecule?
Answer: 12.3%
